Structures can show the parent of a compound that is named as a salt.
Row | Compound | melting point [°C]
1 | CCn1c(-c2cccc(F)c2)nc2c(N)nc(C#CC(C)(C)O)nc21.Cl | 193 to 196
2 | Cl.Nc1nc(C#CC2(O)CCCC2)nc2c1nc(-c1cccc(F)c1)n2C1CC1 | 220 to 223
3 | Cl.Cn1c(-c2cc(F)ccc2F)nc2c(N)nc(C#CC3(O)CCC3)nc21 | 149 to 152
4 | CCC(O)(C#Cc1nc(N)c2nc(-c3cc(F)cc(F)c3)n(C)c2n1)CC.Cl | 207 to 210
5 | CC(C)C(C)(O)C#Cc1nc(N)c2nc(-c3cccc(F)c3)n(C)c2n1.Cl (stereo not shown) | 191 to 192
6 | Cl.Cn1c(-c2cccc(F)c2)nc2c(N)nc(C#CC(C)(O)C(C)(C)C)nc21 (stereo not shown) | 193 to 194
7 | Cl.Cn1c(-c2cccc(F)c2)nc2c(N)nc(C#CC3(O)CCC(c4ccccc4)CC3)nc21 (stereo not shown) | 247 to 249
8 | CCCn1c(-c2cccc(F)c2)nc2c(N)nc(C#CC(O)(CC)CC)nc21.Cl | 144 to 147
9 | CCn1c(-c2cc(F)cc(F)c2)nc2c(N)nc(C#CC3(O)CCCC3)nc21.Cl | 217 to 218
10 | CCn1c(-c2cc(F)cc(F)c2)nc2c(N)nc(C#CC(O)(CC)CC)nc21.Cl | 204 to 205
11 | CCn1c(-c2cc(F)cc(F)c2)nc2c(N)nc(C#CC3(O)CCC3)nc21.Cl | 234 to 235
12 | CCn1c(-c2cc(F)cc(F)c2)nc2c(N)nc(C#CC(C)(C)O)nc21.Cl | 233 to 234
13 | Cl.Nc1nc(C#CC2(O)CCCC2)nc2c1nc(-c1cc(F)cc(F)c1)n2C1CC1 | 265 to 266
14 | Cl.Nc1nc(C#CC2(O)CCC2)nc2c1nc(-c1cc(F)cc(F)c1)n2C1CC1 | 228
15 | CC(C)(O)C#Cc1nc(N)c2nc(-c3cc(F)cc(F)c3)n(C3CC3)c2n1.Cl | 245
16 | CCC(O)(C#Cc1nc(N)c2nc(-c3cccc(F)c3)n(C3CC3)c2n1)CC.Cl | 145 to 148
17 | CC(C)(O)C#Cc1nc(N)c2nc(-c3cccc(F)c3)n(C3CC3)c2n1.Cl | 143 to 145
18 | CCCn1c(-c2cc(F)cc(F)c2)nc2c(N)nc(C#CC(O)(CC)CC)nc21.Cl | 183 to 184
19 | CCCn1c(-c2cc(F)cc(F)c2)nc2c(N)nc(C#CC3(O)CCCC3)nc21.Cl | 210 to 211
20 | CCC(O)(C#Cc1nc(N)c2nc(-c3ccc(C)o3)n(C)c2n1)CC.Cl | 229 to 230
21 | CCC(O)(C#Cc1nc(N)c2nc(-c3cc(F)cc(F)c3)n(C3CC3)c2n1)CC.Cl | 225
22 | Cl.Cn1c(-c2cc(F)cc(F)c2)nc2c(N)nc(C#CC(C)(C)O)nc21 | 237 to 238
23 | CCC(O)(C#Cc1nc(N)c2nc(-c3cc(F)ccc3F)n(C)c2n1)CC.Cl | 147 to 148
24 | Cl.Cn1c(-c2cc(F)ccc2F)nc2c(N)nc(C#CC(C)(C)O)nc21 | 177 to 178

Row | Compound | melting point [°C]
25 | CCn1c(-c2cccc(F)c2F)nc2c(N)nc(C#CC(C)(C)O)nc21.Cl | 213 to 215
26 | CCn1c(-c2cccc(F)c2F)nc2c(N)nc(C#CC(O)(CC)CC)nc21.Cl | 222 to 224
27 | CCn1c(-c2cccc(F)c2F)nc2c(N)nc(C#CC3(O)CCCC3)nc21.Cl | 138 to 140
28 | CCCn1c(-c2cc(F)cc(F)c2)nc2c(N)nc(C#CC(C)(C)O)nc21.Cl | 148 to 150
29 | Cl.Nc1nc(C#CC2(O)CCC2)nc2c1nc(-c1cccc(F)c1)n2C1CC1 | 167 to 170
30 | CCCn1c(-c2cccc(F)c2F)nc2c(N)nc(C#CC3(O)CCC3)nc21.Cl | 124 to 127
31 | CCCn1c(-c2cccc(F)c2F)nc2c(N)nc(C#CC3(O)CCCC3)nc21.Cl | 184 to 188
32 | CCCn1c(-c2cccc(F)c2F)nc2c(N)nc(C#CC(C)(C)O)nc21.Cl | 230 to 233
33 | CCCn1c(-c2cccc(F)c2F)nc2c(N)nc(C#CC(O)(CC)CC)nc21.Cl | 187 to 188
34 | Cl.Nc1nc(C#CC2(O)CCC2)nc2c1nc(-c1cc(F)ccc1F)n2C1CC1 | 161 to 164
35 | Cl.Nc1nc(C#CC2(O)CCCC2)nc2c1nc(-c1cc(F)ccc1F)n2C1CC1 | 230 to 232
36 | CC(C)(O)C#Cc1nc(N)c2nc(-c3cc(F)ccc3F)n(C3CC3)c2n1.Cl | 196 to 198
37 | CCC(O)(C#Cc1nc(N)c2nc(-c3cc(F)ccc3F)n(C3CC3)c2n1)CC.Cl | 215 to 216
38 | CCCn1c(-c2cc(F)ccc2F)nc2c(N)nc(C#CC3(O)CCCC3)nc21.Cl | 232 to 234
39 | CCCn1c(-c2cc(F)ccc2F)nc2c(N)nc(C#CC3(O)CCC3)nc21.Cl | 225 to 226
40 | CCn1c(-c2cc(F)ccc2F)nc2c(N)nc(C#CC3(O)CCC3)nc21.Cl | 141 to 143
41 | CCn1c(-c2cc(F)ccc2F)nc2c(N)nc(C#CC3(O)CCCC3)nc21.Cl | 191 to 194
42 | CCn1c(-c2cc(F)ccc2F)nc2c(N)nc(C#CC(C)(C)O)nc21.Cl | 215 to 218
43 | CCn1c(-c2cc(F)ccc2F)nc2c(N)nc(C#CC(O)(CC)CC)nc21.Cl | 163 to 166
44 | CCCn1c(-c2cc(F)ccc2F)nc2c(N)nc(C#CC(C)(C)O)nc21.Cl | 194 to 196
45 | CCCn1c(-c2cc(F)ccc2F)nc2c(N)nc(C#CC(O)(CC)CC)nc21.Cl | 164 to 165
46 | Cl.Cn1c(-c2ccco2)nc2c(N)nc(C#CCCO)nc21 | 161 to 164
47 | CCn1c(-c2cccc(F)c2)nc2c(N)nc(/C=C/C3(O)CCC3)nc21.Cl | 178 to 180
48 | CCCCC#Cc1nc(N)c2nc(-c3ccco3)n(C)c2n1.Cl | 178 to 181

Row | Compound | melting point [°C]
49 | Cl.Cn1c(-c2cccc(F)c2)nc2c(N)nc(/C=C/C(C)(C)O)nc21 | > 290
50 | Cl.Cn1c(-c2cccc(F)c2)nc2c(N)nc(/C=C/C3(O)CCCCC3)nc21 | 222 to 225
51 | Cl.Cn1c(-c2ccco2)nc2c(N)nc(C#CC3(O)CCCC3)nc21 | 168 to 172
52 | Cl.Cn1c(-c2ccco2)nc2c(N)nc(C#CCCC3CCCCC3)nc21 | 165 to 169
53 | Cl.Cn1c(-c2ccco2)nc2c(N)nc(C#CC3CCCCC3)nc21 | 155 to 160
54 | Cl.Nc1nc(C#CC2(O)CCCCC2)nc2c1nc(-c1cccc(F)c1)n2C1CCCC1 | 196 to 200
55 | CC(C)C(O)C#Cc1nc(N)c2nc(-c3cccc(F)c3)n(C)c2n1.Cl (stereo not shown) | 170 to 173
56 | CCC(O)C#Cc1nc(N)c2nc(-c3cccc(F)c3)n(C)c2n1.Cl (stereo not shown) | 171 to 175
57 | CCn1c(-c2cccc(F)c2)nc2c(N)nc(C#CC(O)(CC)CC)nc21.Cl | 150 to 153
58 | Cl.Cn1c(-c2cc(F)cc(F)c2)nc2c(N)nc(C#CC3(O)CCCC3)nc21 | 255 to 258
59 | CN(C)c1ccc(-n2c(-c3cccc(F)c3)nc3c(N)nc(C#CC4(O)CCCCC4)nc32)cc1 (as salt: hydrochloride) [Example 3, 1-{2-[6-Amino-9-[4-(dimetylamino)phenyl]-8-(3-fluorophenyl)-9H-2-purinyl]-1-ethynyl}-1-cyclohexanol Dihydrochloride] | 255 to 260
60 | CC(O)C#Cc1nc(N)c2nc(-c3ccco3)n(C)c2n1 (stereo not shown) [Example 23, 4-[6-Amino-8-(2-furyl)-9-methyl-9H-2-purinyl]-3-butyn-2-ol] | 155 to 158
61 | COC1CCCCC1(O)C#Cc1nc(N)c2nc(-c3cccc(F)c3)n(C)c2n1 (stereo not shown) [Example 120, 1-{2-[6-Amino-8-(3-fluorophenyl)-9-methyl-9H-2-purinyl}-1-ethynyl}-2-methoxy-1-cyclohexanol] | 281 to 283
62 | COC1CCCCC1(O)C#Cc1nc(N)c2nc(-c3cccc(F)c3)n(C)c2n1 (stereo not shown) [Example 121, 1-{2-[6-Amino-8-(3-fluorophenyl)-9-methyl-9H-2-purinyl]-1-ethynyl}-2-methoxy-1-cyclohexanol] | 195 to 197
63 | Cn1c(-c2cccc(F)c2)nc2c(N)nc(C#CC3(O)C=CCC3)nc21 (stereo not shown) [Example 122, 1-{2-[6-Amino-8-(3-fluorophenyl)-9-methyl-9H-2-purinyl]-1-ethynyl}-2-cyclopenten-1-ol] | 191 to 193
64 | Cn1c(-c2cc(F)cc(F)c2F)nc2c(N)nc(C#CC3(O)CCCC3)nc21 [Example 125, 1-{2-[6-Amino-9-methyl-8-(2,3,5-trifluorophenyl)-9H-2-purinyl]-1-ethynyl}-1-cyclopentanol] | 214 to 217
65 | Cn1c(-c2cc(F)cc(F)c2F)nc2c(N)nc(C#CC3(O)CCC3)nc21 [Example 126, 1-{2-[6-Amino-9-methyl-8-(2,3,5-trifluorophenyl)-9H-2-purinyl]-1-ethynyl}-1-cyclobutanol] | 231 to 234
66 | Cn1c(-c2cccc(F)c2F)nc2c(N)nc(C#CC3(O)CCC3)nc21 [Example 127, 1-{2-[6-Amino-8-(2,3-difluorophenyl)-9-methyl-9H-2-purinyl]-1-ethynyl}-1-cyclobutanol] | 225 to 229
67 | Cn1c(-c2ccccc2F)nc2c(N)nc(C#CC3(O)CCC3)nc21 [Example 146, 1-{2-[6-Amino-8-(2-fluorophenyl)-9-methyl-9H-2-purinyl]-1-ethynyl}-1-cyclobutanol] | 136 to 138
68 | Cn1c(-c2ccccc2F)nc2c(N)nc(C#CC3(O)CCCC3)nc21 [Example 147, 1-{2-[6-Amino-8-(2-fluorophenyl)-9-methyl-9H-2-purinyl]-1-ethynyl}-1-cyclopentanol] | 166 to 168
69 | CCC(O)(C#Cc1nc(N)c2nc(-c3ccccc3F)n(C)c2n1)CC [Example 149] | 199 to 201
70 | Cn1c(-c2ccccc2F)nc2c(N)nc(C#CC(C)(C)O)nc21 [Example 156, 4-[6-Amino-8-(2-fluorophenyl)-9-methyl-9H-2-purinyl]-2-methyl-3-butyn-2-ol] | 198 to 199

— US6579868B1, “Purine derivatives and adenosine A2 receptor antagonists serving as preventives/remedies for diabetes” (Eisai Co., Ltd., priority 1998, dated 2003)
